Reference: US9364474B2, “Method for treatment of neurologic dysfunction” (MedDEV, Inc., priority 2004, dated 2016)

What was measured:
[1] = test system: patient diagnosed with chronic schizophrenia; test: Case example: patient with chronic schizophrenia, transdermal reserpine spray (with prior medication history); type: in vivo, human; details: prior treatment
[2] = test system: patient with Autism; test: Case examples: patients with Autism (ASD), transdermal reserpine (with prior medication history); type: in vivo, human; details: for success of prior treatments: ASD Example Three: person, prior treatments tried
Description: The treatment composition is suitably applied in a single daily dose, e.g., 0.01 mg of the MAO-A agonist in 0.05 ml of spray solution applied once every morning.
Prior to administration of the present invention (transdermal reserpine), the patient's parents were provided with an informed consent documenting the potential risks, benefits and alternatives to this treatment. The patient was started on a dose of Reserpine at a 4× dilution resulting in a total dose of 0.01 mg. […] They were also given approximately 1400 mg of Calcium every morning.

[3] = test system: MAO-A; details: Egashira et al (1996); Gnerre et al (2001); cited from earlier work
[4] = biological target: T1, MAO-B (Homo sapiens, UniProt P27338); details: Egashira et al (1996); Gnerre et al (2001); cited from earlier work
T1 sequence (P27338 1-520): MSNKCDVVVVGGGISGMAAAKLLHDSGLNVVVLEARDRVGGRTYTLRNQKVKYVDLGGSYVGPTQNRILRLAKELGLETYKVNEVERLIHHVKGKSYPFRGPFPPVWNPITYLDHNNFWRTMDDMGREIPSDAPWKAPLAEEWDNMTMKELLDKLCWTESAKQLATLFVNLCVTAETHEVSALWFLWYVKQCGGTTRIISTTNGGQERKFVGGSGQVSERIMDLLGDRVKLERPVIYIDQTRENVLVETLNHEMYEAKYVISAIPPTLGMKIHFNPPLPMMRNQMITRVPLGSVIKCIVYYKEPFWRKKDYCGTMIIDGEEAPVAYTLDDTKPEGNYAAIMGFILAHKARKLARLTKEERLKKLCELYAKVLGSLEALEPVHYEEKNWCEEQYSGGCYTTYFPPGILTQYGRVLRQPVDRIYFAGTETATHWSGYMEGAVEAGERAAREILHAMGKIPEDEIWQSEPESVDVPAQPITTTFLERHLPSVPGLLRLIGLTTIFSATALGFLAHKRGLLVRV

[5] = test system: ethanol-preferring laboratory hamsters; details: cited from earlier work
[6] = test system: aldehyde dehydrogenase; details: literature; cited from earlier work
[7] = test system: patient suffering from depression; details: Depression Example Four; taking nortriptyline
Description: The treatment composition is suitably applied in a single daily dose, e.g., 0.01 mg of the MAO-A agonist in 0.05 ml of transdermal cream applied once every morning. Caffeine may also be included in the composition to compensate for the anti-hypertensive effect of the preferred reserpine; the caffeine may suitably be included in an amount from about 50-100 mg/dose.
Treatment was in the form of 0.01 mg of reserpine per 0.05 ml of transdermal cream, applied transdermally once a day in the morning.
The treatment consisted of 0.01 mg of reserpine per 0.05 ml of cream, applied transdermally by rubbing the cream into the skin once a day in the morning.
The treatment consisted of 0.01 mg of the reserpine per 0.05 ml of cream, applied transdermally by rubbing the cream into the skin once a day in the morning.
The patient discontinued the use of nortriptyline and the same day started the treatment of the present invention, using 0.01 mg of the reserpine per 0.05 ml cream, applied transdermally by rubbing the cream into the skin once a day in the morning.
The patient then started the treatment of the present invention, using 0.01 mg of the MAO-A activity stimulator (reserpine) per 0.05 ml cream, applied transdermally by rubbing the cream into the skin once a day in the morning.

Structure (SMILES): O=C1CCc2ccc(OCCCCN3CCN(c4cccc(Cl)c4Cl)CC3)cc2N1 [Abilify]
- tolerability and efficacy of prior medication ([1]; Schizophrenia Example One): tolerated better but still had many symptoms unresolved

Structure (SMILES): COC(=O)C(c1ccccc1)C1CCCCN1 (stereo not drawn) [Ritalin]
- success of prior treatments [2]: none to minimal success

Structure (SMILES): OCCOCCN1CCN(C2=Nc3ccccc3Sc3ccccc32)CC1 [Seroquel]
- success of prior treatments [2]: none to minimal success

Structure (SMILES): CN(C)CCC=C1c2ccccc2CCc2ccccc21 [amitriptyline]
- activity towards MAO-A [3]: inhibitory activity
- activity towards MAO-B relative to MAO-A [4]: clearly more potent selectivity for MAO-B

Structure (SMILES): CN(C)CCCN1c2ccccc2CCc2ccc(Cl)cc21 [clomipramine]
- activity towards MAO-A [3]: inhibitory activity
- activity towards MAO-B relative to MAO-A [4]: clearly more potent selectivity for MAO-B

Structure (SMILES): O=c1c(-c2ccc(O)cc2)coc2cc(O[C@@H]3O[C@H](CO)[C@@H](O)[C@H](O)[C@H]3O)ccc12 [daidzin]
- effect on ethanol intake [5]: suppress ethanol intake
- effect on aldehyde dehydrogenase [6]: inhibits aldehyde dehydrogenase

Structure (SMILES): CCCC(CCC)C(=O)O [depakote]
- side effects of prior medication ([1]; Schizophrenia Example One: person, discontinued): extremely lethargic and obese
- success of prior treatments [2]: none to minimal success

Structure (SMILES): CN(C)CCC=C1c2ccccc2COc2ccccc21 [doxepine]
- activity towards MAO-A [3]: inhibitory activity
- activity towards MAO-B relative to MAO-A [4]: clearly more potent selectivity for MAO-B

Structure (SMILES): CNCCC(Oc1ccc(C(F)(F)F)cc1)c1ccccc1 (stereo not drawn) [fluoxetine]
- activity towards MAO-A [3]: inhibitory activity
- activity towards MAO-B relative to MAO-A [4]: clearly more potent selectivity for MAO-B

Structure (SMILES): COCCCC/C(=N\OCCN)c1ccc(C(F)(F)F)cc1 [fluvoxamine]
- activity towards MAO-A [3]: inhibitory activity
- activity towards MAO-B relative to MAO-A [4]: clearly more potent selectivity for MAO-B

Structure (SMILES): CN(C)CCCN1c2ccccc2CCc2ccccc21 [imipramine]
- activity towards MAO-A [3]: inhibitory activity
- activity towards MAO-B relative to MAO-A [4]: clearly more potent selectivity for MAO-B

Structure (SMILES): CNCCCC12CCC(c3ccccc31)c1ccccc12 [maprotiline]
- activity towards MAO-A [3]: inhibitory activity
- activity towards MAO-B relative to MAO-A [4]: clearly more potent selectivity for MAO-B

Structure (SMILES): COc1ccc2[nH]cc(CCNC(C)=O)c2c1 [melatonin]
- success of prior treatments [2]: none to minimal success

Structure (SMILES): O=C1CC[C@@]2(O)[C@H]3Cc4ccc(O)c5c4[C@@]2(CCN3CC2CC2)[C@H]1O5 [naltrexone]
- success of prior treatments [2]: none to minimal success

Structure (SMILES): CN1Cc2c(N)cccc2C(c2ccccc2)C1 (stereo not drawn) [nomifensine]
- activity towards MAO-A [3]: inhibitory activity
- activity towards MAO-B relative to MAO-A [4]: clearly more potent selectivity for MAO-B

Structure (SMILES): CNCCC=C1c2ccccc2CCc2ccccc21 [nortriptyline]
- activity towards MAO-A [3]: inhibitory activity
- activity towards MAO-B relative to MAO-A [4]: clearly more potent selectivity for MAO-B
- symptoms persisting despite prior medication [7]: Decreased energy, fatigue • Early morning awakening

Structure (SMILES): OCCOCCN1CCN(C2=Nc3ccccc3Sc3ccccc32)CC1 [quetiapine]
- functional benefit of prior medication ([2]; ASD Example One, prior trials at therapeutic doses, only quetiapine of six medications): functional improvements

Structure (SMILES): CCOc1ccccc1OCC1CNCCO1 (stereo not drawn) [viloxazine]
- activity towards MAO-A [3]: inhibitory activity
- activity towards MAO-B relative to MAO-A [4]: clearly more potent selectivity for MAO-B

Structure (SMILES): CN(C)C/C=C(/c1ccc(Br)cc1)c1cccnc1 [zimeldine]
- activity towards MAO-A [3]: inhibitory activity
- activity towards MAO-B relative to MAO-A [4]: clearly more potent selectivity for MAO-B
